The test system of data set [1] is Human urinary bladder transitional cell papilloma RT4 cells.
Experimental: 3D Cell Culture: Human urinary bladder transitional cell papilloma RT4 cells were cultured in McCoy's 5A (Modified) Medium, supplemented with FBS (10%) and penicillin-streptomycin solution (1%), in a 37° C. and 5% CO2 atmosphere. The cells were split every 4 days at a 1:2 ratio. To obtain 3D RT4 cell cultures, 8-well ibidi dishes were pre-coated with 23 μL of Matrigel™ (5 mg/mL) and incubated at 37° C. for 30 minutes, allowing the gel to form. Next, 30 μL of a suspension of RT4 cells at a density of 5×10^6 cells/mL was spread evenly in each well and the dishes were incubated for 30 minutes at 37° C. Finally, 150 μL of RT4 McCoy's medium containing 10% of Matrigel™ was added. The cultures were allowed to grow for 7 days before the experiments, changing the medium every 2 days.
Cytotoxicity Assays: The viability of RT4 3D cultures was quantified using the Alamar Blue assay and visualized using the LIVE/DEAD viability kit following manufacturer's instructions. […] After, the cultures were washed with medium, kept resting for 24 hours and viability was investigated according to manufacturer's instructions.
The spheroids were obtained by seeding RT4 cells in dishes coated with Matrigel™ which resembles the extracellular matrix and provides a 3D environment for cell growth. Then, the cultures were allowed to proliferate for 7 days and spheroid growth was monitored every day. […] After that, the cultures were washed with medium and cell viability and proliferation was assessed using the Alamar Blue assay.
It was further investigated the viability of the spheroids when exposed to the nanomotors (MSNP-Ur/PEG), under a range of concentrations of urea and at different incubation periods. The spheroids were incubated with 12.5 μg/mL of bare nanomotors or antibody-modified nanomotors at 0 mM, 25 mM, 30 mM and 40 mM of urea, for 1, 2 and 4 hours. Next, the cultures were thoroughly washed with medium to remove nanomotors and uncatalyzed urea and kept for 24 hours before analysis. The effect of the nanomotors on bladder cancer spheroids' viability was visualized using the LIVE/DEAD® viability kit and quantified using the Alamar Blue assay (FIG. 3).
A short description of data set [2]: FRET/Cy3 imaging of DNA-switch micromotors by confocal laser scanning microscopy. The settings on record: micromotors in PBS, pH 5 or pH 9. The procedure:
To test the functionality of the switch once conjugated to the micromotors, FRET efficiency was monitored through a Leica-SP5 confocal laser scanning microscope (CSLM) equipped with a 63× oil immersion objective (FIG. 6B). For this, micromotors were suspended in PBS either at pH 5 or pH 9 and placed in a 8-well glass bottom dish for their analysis under CSLM. The emission of the donor (Cy3) was recorded using a 564 nm diode laser. The FRET image was obtained by exciting the Cy3 fluorophore and detecting the acceptor (Cy5) emission. Using a custom-made ImageJ plug-in, quantification of the FRET efficiency was achieved by calculating the FRET/Cy3 ratio.
The capability of micromotors to simultaneously record local pH changes produced while they are self-propelling was assessed by combining both optical tracking and FRET imaging using CSLM, where 25 s videos were recorded at 3FPS. In the absence of fuel, a mean FRET/Cy3 ratio of 1.8±0.09 (mean±standard error of the mean) was observed.
To gain insights into the instantaneous pH change around the micromotors from the initial moment of the reaction, micromotors were immobilized onto a glass surface using APTES as a coating agent to provide positive surface charges and stabilize the electrostatic interactions with the negatively charged micromotors. […]

Data set [3] is described as follows: Fluorescence (ratiometric FRET) pH titration of DNA switch in solution. The conditions noted are these: 50 nM DNA switch. The procedure:
Fluorescence measurements were carried out on a Cary Eclipse Fluorimeter (Varian), setting excitation wavelength to λex=530 nm (slitex=5 nm) and acquisition between 540 and 700 nm (slitem=5 nm) using quartz cuvettes of reduced volume (100 μL). All measurements were performed at T=25° C. in 10 mM HEPES. Switches were first diluted in HEPES 10 mM at the concentration of 1 μM. […]
The ratiometric FRET has been calculated as following:
Where FCyS is the maximum fluorescence emission of Cy5 (λem=670 nm) and FCy3 is the maximum fluorescence emission of Cy3 (λem=570 nm). The pH titration curves were obtained by plotting Rat. FRET vs hydronium ions concentration, and fitting the data with the following Langmuir-type equation: […]
Where Rat. FRETTRIPLEX and Rat. FRETDUPLEX represent the FRET signal of the switch in the triplex state (closed) and duplex state (open), respectively and where [H^+] represents the total concentration of hydrogen ions and
As a note, fluorophores employed here are not sensitive to pH in the range of pHs investigated (from pH 5.0 to pH 9.5) to avoid any interferences in the signal. It is important to note that this class of triplex-based switches show opening/closing kinetics sufficiently fast to allow the real time monitoring of pH variation (average time constant ˜100 ms).

Read-outs that look alike come from different tables or passages of the source. A value given as a limit tells only on which side of the number the result lay.

In the case of `NC(N)=O` [Urea, urea], the “spheroid viability (biocompatibility)” value in data set [1] is recorded as “not affecting spheroid viability”.
As to `N` [ammonia], the spheroid viability in data set [1] (20 mM ammonia) is on record as greater than 70%; in data set [1] (24 hours, all ammonia concentrations tested), greater than 70%. The “spheroid viability (biocompatibility)” value in data set [1] (24 hours incubation, range of concentrations) was “increased cytotoxic trend with increasing concentrations”.
For the molecule “control switch: non-pH responsive hairpin DNA, SEQ ID NO: 3, Cy3/Cy5 labelled; tested conjugated to micromotors (DNA TCCTTGTCTGTCTGTCTGTCTGAACGTTTTTCGTTC; DNA, backbone not given here; further chemistry not fully specified)”, the “FRET/Cy3 emission of switch-modified micromotors at different pH” value in data set [2] was “no significant differences”.

B1: DNA switch: triplex-forming single stranded DNA, SEQ ID NO: 1, labelled with Cy3 and Cy5 (nucleic acid)
DNA: TCCTTGTCTGTCTGTCTGTCTTTTTTGAAGAAGGAATTTATTCCTTCTTCGTTTGCTTCTTCCTT
modifications: DNA, backbone not given here; Cy3 and Cy5 labels, further chemistry not fully specified
With B1, the FRET efficiency entry in data set [3] (acidic pH values) is recorded as “high FRET efficiency”. Besides, in data set [3] (pH of the solution increased (pH 5.0 to 9.5)), the FRET signal result is “gradual decrease”.

The values are drawn from patent US12636352B2, “Functionalized enzyme-powered nanomotors” (FUNDACIO INSTITUT DE BIOENGINYERIA DE CATALUNYA, priority 2018, dated 2026).
